A short description of data set [1]: Viscosity of formulation. The format is physicochemical. To be noted: cosmetic emulsion of Example 1 with other glycol instead of Bio-PDO.
Data set [2] concerns human skin. Put plainly: Human skin patch test (first). The format is in vivo. To be noted: approximately 100 subjects; 5, 25, and 50% PDO. An excerpt:
(§1) Based on these studies PDO is not expected to be a skin irritant or sensitizer in humans.

Data set [3] relates to human skin. Put plainly: Second human skin patch test. It is filed as in vivo.
Description: as §1

For `CC(O)CCO` (stereo not drawn) [1,3-butylene glycol], the “viscosity of the cosmetic emulsion with the comparison glycol” value (from here on “viscosity of the cosmetic emulsion”) in data set [1] is on record as 6000 cps.

Regarding `CC(CO)CO` [2-methyl-1,3-propanediol], the “viscosity of the cosmetic emulsion” value in data set [1] is reported as 9600 cps. Turning to `OCCCO` [Bio-PDO, 1,3-propanediol], the “skin reactions indicative of irritation or sensitization” value in data set [2] is recorded as “did not cause any skin reactions indicative of irritation or sensitization”. For the same compound, the “clinically significant dermal irritation or sensitization reactions” value in data set [3] (25, 50, and 75% PDO at pH 7, or 75% PDO at pH 4 and 9) is listed as “did not produce any clinically significant dermal irritation or sensitization reactions”. Turning to `CC(O)CO` (stereo not drawn) [propylene glycol], in data set [3] (25, 50, and 75% (pH 7)), the “patch test irritation and cumulative irritation for human skin” value was “patch test irritants and cumulative irritants”. The “viscosity of the cosmetic emulsion” value in data set [1] is listed as 12600 cps.

For the origin of these results see patent publication US20130071535A1, “FOOD AND FLAVORANT COMPOSITIONS COMPRISING RENEWABLY-BASED, BIODEGRADABLE 1,3-PROPANEDIOL” (DuPont Tate & Lyle Bio Products Company, LLC, priority 2006, published 2013).
